Assay results reported in US7521590B2, “Phospholipase C β1 (PLCβ1) knockout mice as a model system for testing schizophrenia drugs” (Korea Institute of Science and Technology, priority 2006, dated 2009).

How the values were obtained:
PLCβ1−/− mice = assay: Prepulse inhibition (PPI) of acoustic startle response in PLCβ1−/− mice; type: in vivo, mouse; details: 0.2 mg/kg i.p. 45 minutes before the test, prepulse 74, 82, 90 dB, p<0.05 vs vehicle
Protocol: (§1) PPI tests were carried out with 26 responder mice 13˜15 weeks old by using a single acoustic startle chamber (Coulbourn Instruments, USA), one mouse at a time. The startle reflex was triggered by a pulse stimulus in the form of a 40 msec, 120 dB burst of white noise (SS). Inhibition of the SS-elicited startle response was achieved using a 20 msec-prepulse stimulus of various intensities (74, 82, and 90 dB white noise) that preceded SS by 100 msec.
(§2) The test was composed of a series of 7 blocks, each of which was a “semi-random” mixture of 8 different trial types (no stimulus, SS only, three PP only, three PP plus SS), separated by 10 to 15-second intertrial intervals. The percent prepulse inhibition (%PPI) was calculated as [1−(response to PP-SS coupling/response to SS only)]×100.
(§3) Haloperidol (0.2 mg/kg body weight) was intraperitonealy (i.p.) administered 45 minutes before the test, using 0.5% dimethylsulfoxide (DMSO) in saline (0.9% NaCl) as the vehicle. Haloperidol (Tocris Cookson, UK) stock solution was prepared in DMSO and stored at […] for less than a month.

wild-type mice = assay: Prepulse inhibition (PPI) of acoustic startle response in wild-type mice; type: in vivo, mouse; details: 0.2 mg/kg i.p. 45 minutes before the test, vs vehicle
Protocol: as §1, §2, §3

O=C(CCCN1CCC(O)(c2ccc(Cl)cc2)CC1)c1ccc(F)cc1 [haloperidol, Haloperidol]
effect on the PPI deficit (%PPI) (PLCβ1−/− mice): completely reversed | effect on the PPI (%PPI) (wild-type mice): not effective
